What was measured:
Experiment in all cases: Glasshouse herbicide test, pre- and post-emergence, percentage damage
Format in all cases: in vivo
[1] = test system: Alopecurus myosuroides (ALOMY); details: 1000 g/h, evaluated after 13 days, five point scale; for percentage damage caused to the plant, ALOMY, POST Application: post-emergence; for percentage damage caused to the plant, ALOMY, PRE Application: pre-emergence
Method: (§1) Seeds of a variety of test species are sown in standard soil in pots (Alopecurus myosuroides (ALOMY), Setaria faberi (SETFA), Stellaria media (STEME), Echinochloa crus-galli (ECHCG), Solanum nigrum (SOLNI), Amaranthus retoflexus (AMARE), Ipomoea hederacea (IPOHE), Lolium perenne (LOLPE). After cultivation for one day (pre-emergence) or after 8 days cultivation (post-emergence) under controlled conditions in a glasshouse (at 24/16° C., day/night; 14 hours light; 65% humidity), the plants are sprayed with an aqueous spray solution derived from the formulation of the technical active ingredient in acetone/water (50:50) solution containing 0.5% Tween 20 (polyoxyethelyene sorbitan monolaurate, CAS RN 9005-64-5). Compounds ae applied at 1000 g/h. The test plants are then grown in a glasshouse under controlled conditions in a glasshouse (at 24/16° C., day/night; 14 hours light; 65% humidity) and watered twice daily. After 13 days for pre and post-emergence, the test is evaluated for the percentage damage caused to the plant. The biological activities are shown in the following table on a five point scale (5=80-100%; 4=60-79%; 3=40-59%; 2=20-39%; 1=0-19%).

[2] = test system: Amaranthus retoflexus (AMARE); details: 1000 g/h, evaluated after 13 days, five point scale (Table B1); for percentage damage caused to the plant, AMARE, POST Application: post-emergence; for percentage damage caused to the plant, AMARE, PRE Application: pre-emergence
Method: as §1

[3] = test system: Echinochloa crus-galli (ECHCG); details: 1000 g/h, evaluated after 13 days, five point scale; for percentage damage caused to the plant, ECHCG, POST Application: post-emergence; for percentage damage caused to the plant, ECHCG, PRE Application: pre-emergence
Method: as §1

[4] = test system: Ipomoea hederacea (IPOHE); details: 1000 g/h, evaluated after 13 days, five point scale; for percentage damage caused to the plant, IPOHE, POST Application: post-emergence; for percentage damage caused to the plant, IPOHE, PRE Application: pre-emergence
Method: as §1

Setaria faberi (SETFA) = details: 1000 g/h, evaluated after 13 days, five point scale; for percentage damage caused to the plant, SETFA, POST Application: post-emergence; for percentage damage caused to the plant, SETFA, PRE Application: pre-emergence
Method: as §1

Solanum nigrum (SOLNI) = details: 1000 g/h, evaluated after 13 days, five point scale; for percentage damage caused to the plant, SOLNI, POST Application: post-emergence; for percentage damage caused to the plant, SOLNI, PRE Application: pre-emergence
Method: as §1

| Compound | percentage damage caused to the plant, ALOMY, POST Application [1] | percentage damage caused to the plant, ALOMY, PRE Application [1] | percentage damage caused to the plant, AMARE, POST Application [2] | percentage damage caused to the plant, AMARE, PRE Application [2] | percentage damage caused to the plant, ECHCG, POST Application [3] | percentage damage caused to the plant, ECHCG, PRE Application [3] | percentage damage caused to the plant, IPOHE, POST Application [4] | percentage damage caused to the plant, IPOHE, PRE Application [4] | percentage damage caused to the plant, SETFA, POST Application (Setaria faberi (SETFA)) | percentage damage caused to the plant, SETFA, PRE Application (Setaria faberi (SETFA)) | percentage damage caused to the plant, SOLNI, POST Application (Solanum nigrum (SOLNI)) | percentage damage caused to the plant, SOLNI, PRE Application (Solanum nigrum (SOLNI)) |
| --- | --- | --- | --- | --- | --- | --- | --- | --- | --- | --- | --- | --- |
| Cn1nnnc1NC(=O)c1ccc(S(C)(=O)=O)c(COCC(F)(F)F)c1Cl [Compound 1.001] | 5 (5=80-100%) | 5 (5=80-100%) | 5 (5=80-100%) | 5 (5=80-100%) | 5 (5=80-100%) | 5 (5=80-100%) | 5 (5=80-100%) | 5 (5=80-100%) | 5 (5=80-100%) | 5 (5=80-100%) | 5 (5=80-100%) | 5 (5=80-100%) |
| Cn1nnnc1NC(=O)c1ccc(C(F)(F)F)cc1S(C)(=O)=O [Compound 1.003] | 5 (5=80-100%) | 5 (5=80-100%) | 5 (5=80-100%) | 5 (5=80-100%) | 5 (5=80-100%) | 5 (5=80-100%) | 5 (5=80-100%) | 5 (5=80-100%) | 5 (5=80-100%) | 5 (5=80-100%) | 5 (5=80-100%) | 5 (5=80-100%) |
| CCCn1nnnc1NC(=O)c1cc(Cl)ccc1Cl [Compound 1.004] | 1 (1=0-19%) | 1 (1=0-19%) | 4 (4=60-79%) | 5 (5=80-100%) | 1 (1=0-19%) | 1 (1=0-19%) | 5 (5=80-100%) | 1 (1=0-19%) | 1 (1=0-19%) | 1 (1=0-19%) | 5 (5=80-100%) | 4 (4=60-79%) |
| CCc1nc(C(C)F)ccc1C(=O)Nc1nnnn1C (stereo not drawn) [Compound 1.005] | 2 (2=20-39%) | 3 (3=40-59%) | 5 (5=80-100%) | 5 (5=80-100%) | 5 (5=80-100%) | 5 (5=80-100%) | 5 (5=80-100%) | 5 (5=80-100%) | 2 (2=20-39%) | 3 (3=40-59%) | 5 (5=80-100%) | 5 (5=80-100%) |
| COCCOCc1nc(C(C)(F)F)ccc1C(=O)Nc1nnnn1C [Compound 1.008] | 5 (5=80-100%) | 5 (5=80-100%) | 5 (5=80-100%) | 5 (5=80-100%) | 5 (5=80-100%) | 5 (5=80-100%) | 5 (5=80-100%) | 5 (5=80-100%) | 5 (5=80-100%) | 5 (5=80-100%) | 5 (5=80-100%) | 5 (5=80-100%) |
| Cn1nnnc1NC(=O)c1cc(Cl)ccc1C(F)(F)F [Compound 1.009] | 5 (5=80-100%) | 5 (5=80-100%) | 5 (5=80-100%) | 5 (5=80-100%) | 2 (2=20-39%) | 2 (2=20-39%) | 5 (5=80-100%) | 4 (4=60-79%) | 1 (1=0-19%) | 1 (1=0-19%) | 5 (5=80-100%) | 5 (5=80-100%) |
| Cn1nnnc1NC(=O)c1cc(F)ccc1C(F)(F)F [Compound 1.010] | 5 (5=80-100%) | 5 (5=80-100%) | 5 (5=80-100%) | 5 (5=80-100%) | 4 (4=60-79%) | 4 (4=60-79%) | 5 (5=80-100%) | 5 (5=80-100%) | 2 (2=20-39%) | 2 (2=20-39%) | 5 (5=80-100%) | 5 (5=80-100%) |
| Cn1nnnc1NC(=O)c1cc(F)c(F)cc1[N+](=O)[O-] [Compound 1.011] | 1 (1=0-19%) | 1 (1=0-19%) | 3 (3=40-59%) | 5 (5=80-100%) | 2 (2=20-39%) | 1 (1=0-19%) | 2 (2=20-39%) | 1 (1=0-19%) | 1 (1=0-19%) | 1 (1=0-19%) | 2 (2=20-39%) | 1 (1=0-19%) |
| Cn1nnnc1NC(=O)c1cc(Br)c(Cl)cc1F [Compound 1.012] | 2 (2=20-39%) | 1 (1=0-19%) | 5 (5=80-100%) | 4 (4=60-79%) | 3 (3=40-59%) | 1 (1=0-19%) | 5 (5=80-100%) | 1 (1=0-19%) | 4 (4=60-79%) | 1 (1=0-19%) | 4 (4=60-79%) | 1 (1=0-19%) |
| Cc1ccc([N+](=O)[O-])c(C(=O)Nc2nnnn2C)c1 [Compound 1.013] | 2 (2=20-39%) | 2 (2=20-39%) | 4 (4=60-79%) | 5 (5=80-100%) | 1 (1=0-19%) | 1 (1=0-19%) | 5 (5=80-100%) | 4 (4=60-79%) | 1 (1=0-19%) | 2 (2=20-39%) | 5 (5=80-100%) | 5 (5=80-100%) |
| Cc1ccc(C(F)(F)F)c(C(=O)Nc2nnnn2C)c1 [Compound 1.014] | 3 (3=40-59%) | 4 (4=60-79%) | 5 (5=80-100%) | 5 (5=80-100%) | 3 (3=40-59%) | 3 (3=40-59%) | 5 (5=80-100%) | 4 (4=60-79%) | 1 (1=0-19%) | 1 (1=0-19%) | 5 (5=80-100%) | 5 (5=80-100%) |

— patent US9686986B2, “Herbicidal compounds” (SYNGENTA LIMITED, priority 2011, dated 2017)
